“Also recorded” adds a separate entry of the source.
Tests used:
[1] = target: T1, tryptophanase (Escherichia coli, UniProt P0A853); assay: L-tryptophan degradation by tryptophanase, kinetic and inhibition analysis (indole formation, Ehrlich reagent); format: biochemical, E. coli; settings: for effect on L-tryptophan degradation: in the absence and presence of DAP; for Ki: read-out: Inhibition const. Ki
T1 construct: purchased Sigma-Aldrich Co. (St. Louis, MO, USA)
Experimental: (§1) When tryptophanase degraded L-tryptophan, all reaction mixtures included 0.2 mM of pyridoxal 5′-phosphate and 0.23 μM of tryptophanase in 100 mM potassium phosphate buffer of pH 8.3. DAP concentrations were prepared to the required concentrations of 0, 0.6, 1.2, 1.9 or 3.1 M. L-tryptophan. The reaction mixture was prepared to a concentration of 98, 108, 128, 137, 147, 167, 196, 225, 245, 294, 343, 392, 490, 680 or 980μM for kinetic analyses. Reactions were performed at 37 °C for 30 min in a Dry Thermo Unit DTU-1B (Taitec, Tokyo, Japan). Although D-tryptophan in addition to L-tryptophan was also degraded into indole in the presence of DAP, an indole production amount from D-tryptophan was neglected at this reaction temperature and time because the catalytic efficiency for D-tryptophan was 0.3% of that for L-tryptophan. On the other hand, the reaction condition of D-tryptophan degradation differed in several ways from that of L-tryptophan degradation. Each concentration of pyridoxal 5′-phosphate and tryptophanase was 1.2 mM and 0.92μM, and additionally reaction temperature and time was 55 °C and 2 h, respectively. All the other reaction conditions were the same as in the L-tryptophan degradation.
(§2) The total volume of the reaction mixture was 2 mL per tube. The reaction was stopped by adding 2 mL of n-butanol, which was vigorously mixed and then immediately centrifuged at approximately 1,000 G for 10 min. After centrifugation, the reaction mixture was separated into two layers of butanol and aqueous solutions in which indole was equally distributed. The supernatant butanol layer was extracted to be mixed with an equal volume of Ehrlich reagent, then colored red at 60 °C for 30 min in Dry Thermo Unit. […] Tryptophanase activity was assayed in triplicate at the same substrate concentration and then averaged. Initial velocity was computed based on the averaged value.
(§3) Initial velocities were defined by indole that formed within 1 minute after 1 mg of tryptophanase was added. Then the reciprocal of (initial velocity/[E] (enzyme concentration)) (ordinate) versus the reciprocal of substrate concentration (abscissa) was drawn for each concentration of L- or D-tryptophan. These double-reciprocal plots were drawn based on the least squares method to calculate kinetic parameters. Kcatwas determined from the reciprocal of the intercepts of these double-reciprocal plots, and the Michaelis constant Km from substrate concentration at 1/v = 0 in the absence of inhibitor. In noncompetitive inhibition, two inhibition constants of Ki (=[E][I]/[EI], E: enzyme; I: inhibitor; EI: enzyme-inhibitor complex) and Ki' (=[ES][I]/[ESI], ES: enzyme-substrate complex; ESI: enzyme-substrate-inhibitor complex) were determined from the slopes and from the intercepts, respectively. In the mixed type inhibition, Ki and Ki' were determined from x and y coordinates of the fixed point in the second quadrant.

[2] = target: T1, tryptophanase; assay: D-tryptophan degradation by tryptophanase in the presence of 3.1 M DAP, kinetic and inhibition analysis; format: biochemical, E. coli; settings: for effect on D-tryptophan degradation: in the presence of 3.1 M DAP
Experimental: as §1, §2, §3

[3] = inhibitor of D-tryptophan degradation, 3.1 M DAP
[4] = inhibitor of L-tryptophan degradation, DAP 0 M
[5] = inhibitor of L-tryptophan degradation, DAP 0.6 M
[6] = inhibitor of L-tryptophan degradation, DAP 1.2 M
[7] = inhibitor of L-tryptophan degradation, DAP 1.9 M
[8] = substrate L-Trp, DAP 0 M (Table 2)
[9] = substrate L-Trp, DAP 0.6 M (Table 2)
[10] = substrate L-Trp, DAP 1.2 M (Table 2)

T1 sequence (P0A853 whole entry): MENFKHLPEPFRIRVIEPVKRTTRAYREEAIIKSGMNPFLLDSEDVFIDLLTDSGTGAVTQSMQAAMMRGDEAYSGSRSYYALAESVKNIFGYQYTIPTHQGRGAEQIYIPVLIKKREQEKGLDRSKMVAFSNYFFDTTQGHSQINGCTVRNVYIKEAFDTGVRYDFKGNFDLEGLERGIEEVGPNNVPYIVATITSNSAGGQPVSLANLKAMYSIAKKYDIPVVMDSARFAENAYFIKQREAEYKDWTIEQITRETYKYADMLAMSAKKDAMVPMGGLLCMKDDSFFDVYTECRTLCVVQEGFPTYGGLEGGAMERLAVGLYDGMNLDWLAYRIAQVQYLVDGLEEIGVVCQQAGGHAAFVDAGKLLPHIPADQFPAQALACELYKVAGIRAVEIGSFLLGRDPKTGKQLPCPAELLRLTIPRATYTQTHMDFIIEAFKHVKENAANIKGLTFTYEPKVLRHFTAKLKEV

N[C@H](Cc1c[nH]cn1)C(=O)O [D-histidine]
effect on L-tryptophan degradation [1]: no effect; also recorded: did not interact | effect on D-tryptophan degradation [2]: inhibited | Inhibition type [2, 3]: competitively inhibited | Ki [2, 3]: 400 µM

N[C@H](Cc1ccccc1)C(=O)O [D-phenylalanine]
effect on L-tryptophan degradation [1]: no effect | effect on D-tryptophan degradation [2]: little

N[C@H](Cc1c[nH]c2ccccc12)C(=O)O [D-tryptophan]
catalytic efficiency, percent of that for L-tryptophan ([1]; in the presence of DAP, 37 °C, 30 min): 0.3% | Inhibition type [1, 4]: competitive inhibitor | Ki [1, 4]: 21000 µM | Inhibition type [1, 5]: mixed | Ki [1, 5]: 25000 µM | Inhibition type [1, 6]: mixed | Ki [1, 6]: 30000 µM | Inhibition type [1, 7]: mixed | Ki [1, 7]: 38000 µM | Inhibition type ([1]; inhibitor of L-tryptophan degradation, DAP 3.1 M): noncompetitive inhibition type | Ki/Ki' ([1]; with increasing DAP concentrations (0 to 3.1 M), L-tryptophan degradation): 0 to 1.0

N[C@H](Cc1ccc(O)cc1)C(=O)O [D-tyrosine]
effect on L-tryptophan degradation [1]: no effect | effect on D-tryptophan degradation [2]: no effect

N.N.O=P(O)(O)O [DAP, diammoniumhydrogen phosphate]
Inhibition type ([1]; DAP as inhibitor of L-tryptophan degradation): noncompetitive inhibitor

N[C@@H](Cc1c[nH]c2ccccc12)C(=O)O [L-tryptophan]
reduced values of kcat compared to the values in the absence of DAP ([1]; L-tryptophan degradation in the presence of DAP): 18–45%

O=C(O)C(=O)Cc1c[nH]c2ccccc12 [indole pyruvate]
Ki, fold stronger than for pyruvate ([1]; L-tryptophan degradation): 15 fold | Inhibition type [1, 8]: competitive | Ki [1, 8]: 200 µM | Inhibition const. Ki' [1, 9]: 300 µM | Inhibition type [1, 9]: mixed | Ki [1, 9]: 200 µM | Inhibition const. Ki' [1, 10]: 200 µM | Inhibition type [1, 10]: noncompetitive | Ki [1, 10]: 200 µM

CC(=O)C(=O)O [potassium pyruvate]
Inhibition type [1, 8]: competitively inhibited; also recorded: competitive | Ki [1, 8]: 3000 µM
